Measured values as given in the supplement of paper PMC10331698.
± gives the standard deviation of the averaged measurements.

Tests used:
Assay in all cases: level (log10 ratio to DMSO vehicle control); higher = higher biomarker level / cell amount than vehicle control
Perfluoropropanoic acid = compound: O=C(O)C(F)(F)C(F)(F)F [Perfluoropropanoic acid]; settings: in DMSO
Experimental: (§1)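 BioMAP Diversity Plus panel of 12 human primary cell co-culture systems (3C, 4H, LPS, SAg, BT, BF4T, BE3C, CASM3C, HDF3CGF, KF3CT, MyoF, Mphg). Compounds were added 1 h before stimulation and left for 24 h (MyoF 48 h; BT 72 h for soluble read-outs or 6 d for IgG). Biomarkers were read by ELISA, cytotoxicity by SRB, PBMC viability and proliferation by Alamar Blue. Each well value was divided by the mean of 8 DMSO control wells on the same plate and log10 transformed; duplicate blinded samples were tested at 4 concentrations.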

[1] = compound: C=CC(=O)OCC(F)(F)C(F)(F)C(F)(F)C(F)(F)C(F)(F)C(F)(F)C(F)(F)F [1H,1H-Perfluorooctyl acrylate]; settings: in DMSO
Experimental: as §1

[2] = compound: OCCCC(F)(F)C(F)(F)C(F)(F)C(F)(F)C(F)(F)C(F)(F)C(F)(F)F [7:3 Fluorotelomer alcohol]; settings: 6700 nM; in DMSO
Experimental: as §1

[3] = compound: FC(F)C(F)(F)COCC1CO1 [((2,2,3,3-Tetrafluoropropoxy)methyl)oxirane]; settings: in DMSO
Experimental: as §1

[4] = compound: CCN(CCO)S(=O)(=O)C(F)(F)C(F)(F)C(F)(F)C(F)(F)C(F)(F)C(F)(F)C(F)(F)C(F)(F)F [N-Ethyl-N-(2-hydroxyethyl)perfluorooctanesulfonamide]; settings: in DMSO
Experimental: as §1

Perfluorodecanoic acid = compound: O=C(O)C(F)(F)C(F)(F)C(F)(F)C(F)(F)C(F)(F)C(F)(F)C(F)(F)C(F)(F)C(F)(F)F [Perfluorodecanoic acid]; settings: in DMSO
Experimental: as §1

Heptafluorobutyramide = compound: NC(=O)C(F)(F)C(F)(F)C(F)(F)F [Heptafluorobutyramide]; settings: in DMSO
Experimental: as §1

| Test System | level (log10) (Perfluoropropanoic acid; 6700 nM) | level (log10) (Perfluoropropanoic acid; 20000 nM) | level (log10) (Perfluoropropanoic acid; 60000 nM) | level (log10) ([1]; 6700 nM) | level (log10) ([1]; 20000 nM) | level (log10) ([1]; 60000 nM) | level (log10) [2] | level (log10) ([3]; 6700 nM) | level (log10) ([3]; 20000 nM) | level (log10) ([3]; 60000 nM) | level (log10) ([4]; 6700 nM) | level (log10) ([4]; 20000 nM) | level (log10) (Perfluorodecanoic acid; 6700 nM) | level (log10) (Perfluorodecanoic acid; 20000 nM) | level (log10) (Heptafluorobutyramide; 6700 nM) | level (log10) (Heptafluorobutyramide; 20000 nM) | level (log10) (Heptafluorobutyramide; 60000 nM) |
| --- | --- | --- | --- | --- | --- | --- | --- | --- | --- | --- | --- | --- | --- | --- | --- | --- | --- |
| SAg:PBMC Cytotoxicity | -0.001 ± 0.013 | -0.0055 ± 0.0092 | 0.009 ± 0.044 | -0.004 ± 0.017 | 0.0125 ± 0.053 | -0.0535 ± 0.071 | -0.0315 ± 0.018 | 0.031 ± 0.021 | -0.006 | 0.0205 ± 0.023 | -0.039 ± 0.052 | -0.0865 ± 0.042 | 0.032 ± 0.0028 | 0.0625 ± 0.061 | 0.001 ± 0.014 | -0.0125 ± 0.021 | 0.019 ± 0.0099 |
| LPS:CD40 | 0.0105 ± 0.043 | -0.0235 ± 0.0035 | 0.011 ± 0.023 | 0.0745 ± 0.063 | 0.039 ± 0.071 | -0.0125 ± 0.097 | 0.0345 ± 0.005 | 0.009 | -0.006 ± 0.0057 | -0.012 ± 0.017 | 0.0735 ± 0.022 | 0.122 ± 0.0042 | -0.015 ± 0.16 | -0.0235 ± 0.12 | 0.0065 ± 0.022 | -0.004 ± 0.071 | 0.001 ± 0.059 |
| BF4T:IL-1alpha | -0.0325 ± 0.005 | 0.002 | 0.013 ± 0.03 | -0.0075 ± 0.00071 | 0.0045 ± 0.0021 | -0.0125 ± 0.013 | -0.0045 ± 0.012 | -0.0025 ± 0.00071 | -0.009 ± 0.0099 | 0.021 ± 0.03 | 0.008 ± 0.016 | -0.0175 ± 0.015 | -0.0335 ± 0.0035 | -0.247 ± 0.28 | 0.005 ± 0.02 | -0.0045 ± 0.012 | 0.016 ± 0.0071 |
| 4H:CD87/uPAR | -0.0325 ± 0.025 | -0.014 ± 0.011 | 0.0085 ± 0.016 | -0.009 ± 0.062 | 0.0005 ± 0.037 | -0.003 ± 0.018 | 0.0105 ± 0.015 | -0.013 | -0.0205 ± 0.03 | -0.012 ± 0.0042 | -0.037 ± 0.037 | -0.088 ± 0.024 | 0.0115 ± 0.021 | 0.0135 ± 0.0092 | 0.048 ± 0.014 | 0.031 ± 0.0014 | 0.0315 ± 0.0092 |
| BE3C:IL-1alpha | -0.019 ± 0.016 | -0.021 ± 0.04 | -0.0115 ± 0.023 | -0.006 ± 0.018 | -0.0095 ± 0.0035 | -0.0105 ± 0.019 | -0.002 ± 0.014 | 0.0015 ± 0.029 | -0.0015 ± 0.0078 | -0.008 ± 0.014 | 0.0165 ± 0.005 | -0.0485 ± 0.059 | -0.0245 ± 0.00071 | -0.811 ± 0.055 | -0.0085 ± 0.052 | 0.027 ± 0.037 | -0.004 ± 0.076 |
| BE3C:CXCL11/I-TAC | 0.007 ± 0.0071 | 0.013 ± 0.014 | 0.029 ± 0.033 | 0.0115 ± 0.00071 | 0.016 ± 0.0099 | 0.009 ± 0.0014 | 0.022 ± 0.017 | 0.0005 ± 0.054 | -0.008 ± 0.033 | 0.0225 ± 0.037 | -0.006 ± 0.023 | -0.0035 ± 0.029 | -0.0405 ± 0.021 | -0.849 ± 0.028 | -0.0035 ± 0.0064 | 0.005 ± 0.0042 | -0.0015 ± 0.00071 |
| 4H:VEGFR2 | -0.0375 ± 0.026 | -0.011 ± 0.04 | 0.049 ± 0.042 | -0.0075 ± 0.0035 | 0.0045 ± 0.0064 | 0.0235 ± 0.019 | 0.014 ± 0.017 | 0.0095 ± 0.04 | 0.0065 ± 0.033 | -0.0085 ± 0.026 | 0.0365 ± 0.0092 | 0.002 ± 0.0042 | -0.007 ± 0.017 | -0.01 ± 0.02 | 0.018 ± 0.024 | 0.01 | 0.0075 ± 0.029 |
| BE3C:CD87/uPAR | -0.018 ± 0.0085 | -0.026 ± 0.0085 | 0.01 ± 0.0014 | -0.0045 ± 0.022 | 0.0205 ± 0.026 | 0.0315 ± 0.029 | 0.0185 ± 0.03 | -0.016 ± 0.018 | -0.017 ± 0.028 | -0.0135 ± 0.022 | 0.012 ± 0.016 | -0.024 ± 0.028 | 0.05 ± 0.016 | -0.554 ± 0.011 | 0.043 ± 0.04 | 0.0155 ± 0.016 | -0.019 ± 0.017 |
| BT:PBMC Cytotoxicity | -0.0215 ± 0.056 | -0.013 ± 0.027 | -0.005 ± 0.0085 | -0.032 ± 0.071 | -0.0405 ± 0.056 | -0.092 ± 0.068 | 0.0245 ± 0.035 | 0.0145 ± 0.0021 | -0.011 ± 0.0085 | -0.0135 ± 0.005 | -0.003 ± 0.027 | -0.0615 ± 0.0035 | 0.0195 ± 0.023 | 0.045 ± 0.045 | 0.014 ± 0.0099 | 0.0025 ± 0.025 | 0.0105 ± 0.013 |
| SAg:CD62E/E-Selectin | 0.004 ± 0.013 | -0.0205 ± 0.016 | 0.0425 ± 0.023 | -0.0035 ± 0.0064 | -0.036 ± 0.0042 | -0.0335 ± 0.016 | -0.0005 ± 0.00071 | 0.0075 ± 0.018 | -0.002 ± 0.023 | 0.009 ± 0.047 | 0.0625 ± 0.013 | 0.079 ± 0.016 | 0.0005 ± 0.015 | 0.0165 ± 0.023 | 0.0035 ± 0.023 | -0.008 ± 0.047 | -0.0065 ± 0.022 |
| 3C:HLA-DR | -0.003 ± 0.0028 | 0.0035 ± 0.0035 | 0.011 ± 0.011 | 0.0085 ± 0.0092 | 0.0155 ± 0.0035 | 0.0205 ± 0.019 | -0.002 ± 0.0057 | 0.012 ± 0.0085 | 0.013 ± 0.021 | 0.0235 ± 0.043 | 0.013 ± 0.025 | -0.0625 ± 0.016 | -0.0035 ± 0.0021 | -0.006 ± 0.013 | 0.005 ± 0.0099 | 0.008 ± 0.0057 | -0.007 ± 0.0028 |
| SAg:CXCL8/IL-8 | -0.022 ± 0.0057 | 0.0065 ± 0.019 | 0.0415 ± 0.0078 | -0.0135 ± 0.053 | 0.001 ± 0.052 | 0.003 ± 0.024 | -0.0085 ± 0.025 | -0.004 ± 0.011 | -0.0335 ± 0.011 | 0.02 ± 0.018 | 0.0095 ± 0.025 | -0.167 ± 0.03 | -0.0325 ± 0.03 | -0.064 ± 0.038 | 0.015 ± 0.013 | 0.011 ± 0.017 | 0.0085 ± 0.021 |
| SAg:CXCL9/MIG | -0.0015 ± 0.0078 | 0.012 ± 0.0057 | 0.0025 ± 0.022 | 0.003 ± 0.0099 | -0.009 ± 0.0014 | 0.0015 ± 0.012 | -0.0145 ± 0.005 | -0.002 ± 0.011 | -0.006 ± 0.014 | 0.0065 ± 0.0092 | -0.0135 ± 0.005 | -0.0075 ± 0.013 | -0.006 ± 0.011 | -0.0025 ± 0.015 | 0.0075 ± 0.0021 | -0.0025 ± 0.012 | 0.0005 ± 0.013 |
| LPS:IL-1alpha | -0.047 ± 0.033 | -0.0405 ± 0.037 | -0.0165 ± 0.032 | 0.0165 ± 0.018 | 0.033 ± 0.023 | 0.042 ± 0.025 | -0.0615 ± 0.013 | -0.046 ± 0.0042 | -0.026 ± 0.021 | 0.022 ± 0.024 | -0.098 ± 0.013 | -0.141 ± 0.026 | 0.0275 ± 0.016 | -0.0125 ± 0.0092 | -0.014 ± 0.018 | -0.0125 ± 0.0035 | 0.013 ± 0.054 |
| 3C:CD87/uPAR | -0.008 ± 0.011 | -0.005 ± 0.011 | 0.0125 ± 0.013 | -0.0055 ± 0.012 | -0.0075 ± 0.0064 | 0.004 | -0.003 ± 0.031 | 0.0035 ± 0.012 | -0.002 ± 0.0042 | 0.009 ± 0.0042 | -0.047 ± 0.027 | -0.124 ± 0.046 | 0.011 ± 0.02 | -0.01 ± 0.02 | -0.014 ± 0.082 | -0.0435 ± 0.07 | -0.0375 ± 0.066 |
